Here are results for 3 compounds from US11059787B2, “Crystalline form of lenvatinib mesylate and methods thereof” (Shenzhen Bolan Pharmaceutical Co., LTD., priority 2019, dated 2021).

The nature of one series: in vivo. The settings on record: BALB/c, mouse, po.
Series [1] can be described thus: Solubility in water with 1% polyvinyl alcohol. The settings on record: solids added until not completely dissolved, in suspension for 5 hours, methanesulfonate. The format is physicochemical. As for the experimental part:
The solubility of Form XI was measured as compared to the previously reported Form A and Form C in U.S. Pat. No. 7,612,208. Form XI, Form A and Form C solids were gradually added into water with 1% polyvinyl alcohol until the solids could not dissolve completely and stay in suspension for 5 hours.

Series [2] is described as follows: Storage stability of the crystalline form for 15 days, compared by XRPD. The series is classed as physicochemical. The settings on record: stored 15 days at 8° C., 25° C., 25° C./92.5% RH, 25° C./4500 LUX and 40° C./75% RH; XRPD comparison. As for the experimental part:
The stability of Form XI was measured after being stored for 15 days under the following conditions: 8° C., 25° C., 25° C./92.5% RH, 25° C./4500 LUX and 40° C./75% RH.

For `COc1cc2nccc(Oc3ccc(NC(=O)NC4CC4)c(Cl)c3)c2cc1C(N)=O.CS(=O)(=O)O` [Form XI, 4-(3-chloro-4-(cyclopropylaminocarbonyl)aminophenoxy)-7-methoxy-6-quinolinecarboxamide methanesulfonate], in the series “in vivo”, the AUC(0-inf) was 38900 ± 11100 ng·h/mL, the highest level (Cmax) was 11500 ± 2920 ng/mL, the time to peak (Tmax) is 0.833 h and the bioavailability was 109%. In addition, the half-life in the series “in vivo” is 1.95 ± 0.04 h. Besides, the Solubility in series [1] is 26.65 mg/mL. The “Stability under storage conditions” value in series [2] is reported as “stable”.
As for `COc1cc2nccc(Oc3ccc(NC(=O)NC4CC4)c(Cl)c3)c2cc1C(N)=O.CS(=O)(=O)O` [Form A, 4-(3-chloro-4-(cyclopropylaminocarbonyl)aminophenoxy)-7-methoxy-6-quinolinecarboxamide methanesulfonate], the Solubility in series [1] came out at 11.75 mg/mL.
The compound `COc1cc2nccc(Oc3ccc(NC(=O)NC4CC4)c(Cl)c3)c2cc1C(N)=O.CS(=O)(=O)O` [Form C, 4-(3-chloro-4-(cyclopropylaminocarbonyl)aminophenoxy)-7-methoxy-6-quinolinecarboxamide methanesulfonate] registered a Solubility in series [1] of 16.175 mg/mL.
